The numbers were not newly measured in patent US9265757B2, “Methods of administering antihistamines” (APTAPHARMA INC., priority 2011, dated 2016), which cites them from elsewhere.

The conditions of this series: second generation antihistamines; from time of administration to symptomatic relief.
For `COc1ccc(CCN2CCC(Nc3nc4ccccc4n3Cc3ccc(F)cc3)CC2)cc1` [astemizole], the “lag time before onset of action” value is listed as “several hours”. Turning to `O=C(O)COCCN1CCN(C(c2ccccc2)c2ccc(Cl)cc2)CC1` (stereo not shown) [cetirizine], the “lag time before onset of action” value is reported as “several hours”. Take `CCOC(=O)N1CCC(=C2c3ccc(Cl)cc3CCc3cccnc32)CC1` [loratadine]: the “lag time before onset of action” value was “several hours”. `CC(C)(C)c1ccc(C(O)CCCN2CCC(C(O)(c3ccccc3)c3ccccc3)CC2)cc1` (stereo not shown) [terfenadine]: the “lag time before onset of action” value is recorded as “several hours”.
